Experimental data reported in patent US8710198B2, “Caprazene as a novel compound and derivatives thereof, and caprazol as a novel compound and derivatives thereof” (Meiji Seika Pharma Co., Ltd., priority 2003, dated 2014).

Legend:
Format in all cases: cell-based
[1] = tested on: Mycobacterium smegmatis ATCC607; test: Minimum growth inhibitory concentration on agar culture medium with 1% glycerine by serial dilution method; conditions: agar culture medium with the addition of 1% glycerine
Experimental: (§1) Minimum growth inhibitory concentrations (mcg/ml) of caprazene-1′″-amide derivatives of the formula (II) against some of microorganisms were measured on an agar culture medium by a serial dilution method according to the standard method as provided by Japanese Society of Chemotherapy. For the cultivation of Mycobacterium smegmatis (one of […]), however, there was used an agar culture medium with the addition of 1% glycerine (the same applies to in the following tests).
(§2) Minimum growth inhibitory concentrations (mcg/ml) of some of the caprazene-1′″-ester derivative of the formula (III) against some of microorganisms were measured on an agar culture medium by a serial dilution method according to the standard method as provided by Japanese Society of Chemotherapy.
(§3) Minimum growth inhibitory concentrations (mcg/ml) of some of the caprazol-1′″-amide derivative of the formula (V) against a variety of microorganisms were measured on an agar medium by a serial dilution method according to the standard method as provided by Japanese Society of Chemotherapy.
as §3, with “caprazol-1′″-amide-3′″-ester” for “caprazol-1′″-amide”, “(VI)” for “(V)”
as §3, with “caprazol-3′″-ester derivative or caprazol-1′″-ester-3′″-ester” for “caprazol-1′″-amide”, “(VII)” for “(V)”

[2] = tested on: Staphylococcus aureus FDA209P; test: Minimum growth inhibitory concentration on agar culture medium by serial dilution method (Japanese Society of Chemotherapy)
Experimental: as §1, §2, §3
as §3, with “caprazol-1′″-amide-3′″-ester” for “caprazol-1′″-amide”, “(VI)” for “(V)”
as §3, with “caprazol-3′″-ester derivative or caprazol-1′″-ester-3′″-ester” for “caprazol-1′″-amide”, “(VII)” for “(V)”
(§4) Minimum growth inhibitory concentrations (mcg/ml) of some of the derivative of the formula (VIII) against a variety of microorganisms were measured on an agar medium by a serial dilution method according to the standard method as provided by Japanese Society of Chemotherapy.

Micrococcus luteus FDA16 = test: as above
Experimental: as §1, §2, §3
as §4, with “of the caprazol-1′″-amide-3′″-ester derivative of” for “of the derivative of”, “the formula (VI) against a” for “the formula (VIII) against a”
as §4, with “of the caprazol-3′″-ester derivative or caprazol-1′″-ester-3′″-ester derivative of” for “of the derivative of”, “the formula (VII) against a” for “the formula (VIII) against a”
as §4

Structure (SMILES)	Minimum growth inhibitory concentration (mcg/ml) against bacteria Mycobacterium smegmatis ATCC607 [1]	Minimum growth inhibitory concentration (mcg/ml) against bacteria Staphylococcus aureus FDA209P [2]	Minimum growth inhibitory concentration (mcg/ml) against bacteria Micrococcus luteus FDA16 (Micrococcus luteus FDA16)
CCCc1ccc(NC(=O)C2=CCN(C)C(C(OC3OC(CN)C(O)C3O)C3OC(n4ccc(=O)[nH]c4=O)C(O)C3O)C(=O)N2C)cc1 (stereo not drawn) [Compound II-3]	12.5 µg/mL	25 µg/mL	3.13 µg/mL
CCCCCc1ccc(NC(=O)C2=CCN(C)C(C(OC3OC(CN)C(O)C3O)C3OC(n4ccc(=O)[nH]c4=O)C(O)C3O)C(=O)N2C)cc1 (stereo not drawn) [Compound II-5]	3.13 µg/mL	3.13 µg/mL	0.2 µg/mL
CCCCCCc1ccc(NC(=O)C2=CCN(C)C(C(OC3OC(CN)C(O)C3O)C3OC(n4ccc(=O)[nH]c4=O)C(O)C3O)C(=O)N2C)cc1 (stereo not drawn) [Compound II-6]	0.78 µg/mL	1.56 µg/mL	0.39 µg/mL
CCCCCCCc1ccc(NC(=O)C2=CCN(C)C(C(OC3OC(CN)C(O)C3O)C3OC(n4ccc(=O)[nH]c4=O)C(O)C3O)C(=O)N2C)cc1 (stereo not drawn) [Compound II-7]	<0.20 µg/mL	1.56 µg/mL	<0.20 µg/mL
CCCCCCCCCc1ccc(NC(=O)C2=CCN(C)C(C(OC3OC(CN)C(O)C3O)C3OC(n4ccc(=O)[nH]c4=O)C(O)C3O)C(=O)N2C)cc1 (stereo not drawn) [Compound II-9]	1.56 µg/mL	3.13 µg/mL	0.39 µg/mL
CCCCCCCCCCc1ccc(NC(=O)C2=CCN(C)C(C(OC3OC(CN)C(O)C3O)C3OC(n4ccc(=O)[nH]c4=O)C(O)C3O)C(=O)N2C)cc1 (stereo not drawn) [Compound II-10]	3.13 µg/mL	3.13 µg/mL	<0.20 µg/mL
CCCCCCCCCCCc1ccc(NC(=O)C2=CCN(C)C(C(OC3OC(CN)C(O)C3O)C3OC(n4ccc(=O)[nH]c4=O)C(O)C3O)C(=O)N2C)cc1 (stereo not drawn) [Compound II-11]	3.13 µg/mL	3.13 µg/mL	0.39 µg/mL
CCCCCCCCCCCCc1ccc(NC(=O)C2=CCN(C)C(C(OC3OC(CN)C(O)C3O)C3OC(n4ccc(=O)[nH]c4=O)C(O)C3O)C(=O)N2C)cc1 (stereo not drawn) [Compound II-12]	6.25 µg/mL	3.13 µg/mL	0.78 µg/mL
CCCCCCCCCCCCCc1ccc(NC(=O)C2=CCN(C)C(C(OC3OC(CN)C(O)C3O)C3OC(n4ccc(=O)[nH]c4=O)C(O)C3O)C(=O)N2C)cc1 (stereo not drawn) [Compound II-13]	12.5 µg/mL	3.13 µg/mL	1.56 µg/mL
CCCCCCCCCCCCCCc1ccc(NC(=O)C2=CCN(C)C(C(OC3OC(CN)C(O)C3O)C3OC(n4ccc(=O)[nH]c4=O)C(O)C3O)C(=O)N2C)cc1 (stereo not drawn) [Compound II-14]	25 µg/mL	6.25 µg/mL	3.13 µg/mL
CCCCCCOc1ccc(NC(=O)C2=CCN(C)C(C(OC3OC(CN)C(O)C3O)C3OC(n4ccc(=O)[nH]c4=O)C(O)C3O)C(=O)N2C)cc1 (stereo not drawn) [Compound II-20]	1.56 µg/mL	6.25 µg/mL	0.39 µg/mL
